According to patent publication US10726554B2, “Information processing apparatus, information processing system, and information processing method” (Sony Corporation, priority 2015, dated 2020):

How the values were obtained:
Format in all cases: cell-based
U2OS cells [1] = test: Change in motion speed by motor protein inhibitor (phase contrast imaging, average motion speed); conditions: imaging time 60 minutes
Experimental: Images (moving image) of U2OS cells cultured at different medicine concentrations were captured with a phase contrast microscope. […] For the AMP-PNP, three types of cells respectively having medicine concentrations of 67, 200, and 670 micro M and a comparative cell to which nothing is administered were prepared. For the ATA, three types of cells respectively having medicine concentrations of 10, 30, and 100 micro M and a comparative cell to which nothing is administered were prepared. The magnification power of the microscope was 20×, the imaging interval was 5 frames per second, and the imaging time was 60 minutes. After motion vectors were calculated at intervals of approximately 1 micrometer, an average of the motion amount per unit time (motion speed) was calculated, to create a graph.
FIG. 27 is a graph of a motion speed for the cells to which AMP-PNP is administered at different medicine concentrations. FIG. 28 is a graph of a motion speed for the cells to which ATA is administered at different medicine concentrations.

U2OS cells [2] = test: Change in motion speed by metabolic inhibition with mitochondrial uncoupler (phase contrast imaging, relative motion area); conditions: U2OS cells, 0.5, 5 and 50 micro M, imaging time 20 minutes, versus comparative cell (FIG. 26)
Experimental: Images (moving image) of U2OS cells cultured at different medicine concentrations were captured with a phase contrast microscope. A medicine was CCCP, which is a mitochondrial uncoupler used as a metabolic inhibitor. Three types of cells respectively having medicine concentrations of 0.5, 5, and 50 micro M and a comparative cell to which nothing is administered were prepared. The magnification power of the microscope was 20×, the imaging interval was 5 frames per second, and the imaging time was 20 minutes. After motion vectors were calculated at intervals of approximately 1 micrometer, a relative motion area was calculated to create a graph.
FIG. 26 is a graph of a relative motion area for the cells cultured at different medicine concentrations.

U2OS cells [3] = test: Change in motion speed by microtubule disruption (phase contrast imaging, motion vector analysis); conditions: 2 micro M, imaging time 20 minutes; for motion area in color map of motion speed: versus comparative cell (FIGS. 20, 22, 24); for relative motion area (proportion of the motion area to the cell area): versus comparative cell to which nothing is administered (FIG. 25)
Experimental: Images (moving image) of U2OS cells cultured on different conditions were captured with a phase contrast microscope. Three types of cells, i.e., a cell to which Paclitaxel of 2 micro M is administered, a cell to which Nocodazole of 2 micro M is administered, and a comparative cell to which nothing is administered, were prepared. The Paclitaxel stabilizes a microtubule. The Nocodazole destabilizes a microtubule. The magnification power of the microscope was 20×, the imaging interval was 5 frames per second, and the imaging time was 20 minutes. After motion vectors were calculated at intervals of approximately 1 micrometer, a spatiotemporal average of the motion amount per unit time (motion speed) of each coordinate was calculated, to create a color map. Further, on the basis of the proportion of the cell within the captured image, a cell area and a motion area indicating a motion speed larger than a predetermined motion speed were calculated, and a relative motion area indicating a proportion of the motion area to the cell area was specified, to create a graph.
FIG. 19 is a phase-contrast image of a comparative cell to which nothing is administered, and FIG. 20 is a color map of the comparative cell. FIG. 21 is a phase-contrast image of a cell to which Paclitaxel is administered, and FIG. 22 is a color map of the cell. FIG. 23 is a phase-contrast image of a cell to which Nocodazole is administered, and FIG. 24 is a color map of the cell. FIG. 25 is a graph of a relative motion area for the cells cultured on those three conditions.

Row | Compound | motion area in color map of motion speed (U2OS cells [3]) | relative motion area (proportion of the motion area to the cell area) (U2OS cells [3]) | other results
1 | Nc1ncnc2c1ncn2[C@@H]1O[C@H](COP(=O)(O)OP(=O)(O)NP(=O)(O)O)[C@@H](O)[C@H]1O [AMP-PNP] | – | – | motion speed (average of the motion amount per unit time) (U2OS cells [1]; U2OS cells, 67, 200 and 670 micro M, versus comparative cell (FIG. 27)): the value of the motion speed decreases in accordance with an increase of the medicine concentration
2 | O=C(O)C1=CC(=C(c2ccc(O)c(C(=O)O)c2)c2ccc(O)c(C(=O)O)c2)C=CC1=O [ATA] | – | – | motion speed (average of the motion amount per unit time) (U2OS cells [1]; U2OS cells, 10, 30 and 100 micro M, versus comparative cell (FIG. 28)): the value of the motion speed decreases in accordance with an increase of the medicine concentration
3 | N#CC(C#N)=NNc1cccc(Cl)c1 [CCCP] | – | – | relative motion area (U2OS cells [2]): the value of the relative motion area decreases in accordance with an increase of the concentration of CCCP
4 | COC(=O)Nc1nc2ccc(C(=O)c3cccs3)cc2[nH]1 [Nocodazole] | the motion area obviously shrinks in the color map | the value of the relative motion area decreases | –
5 | CC(=O)O[C@H]1C(=O)[C@@]2(C)[C@H]([C@H](OC(=O)c3ccccc3)[C@]3(O)C[C@H](OC(=O)[C@H](O)[C@@H](NC(=O)c4ccccc4)c4ccccc4)C(C)=C1C3(C)C)[C@]1(OC(C)=O)CO[C@@H]1C[C@@H]2O [Paclitaxel] | do not have difference in color map | do not have difference in color map and in value of the relative motion area | –
